# Patent US12617779B2, “Self degradation-type CDK9 inhibitor prodrug and liposome encapsulating same” (Sumitomo Pharma Co., Ltd., priority 2021, dated 2026)
# Tests used:
# [1] = Evaluation of conversion rate to active form in buffer solution (Experimental Example 1); type: physicochemical; settings: for Stability in buffer solution at pH 5: pH 5, 37° C., up to 2 or 3 hours
# Method in brief: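 Stability across pH: 25 umol/L, 37° C, 50 mM citrate/phosphate, pH 5.0–7.4. Sampling at 0, 0.5, 1, 2, 3 h; HPLC determined loss of compound and Alvocidib generated.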
# [2] = Evaluation of conversion rate to active form in human plasma (Experimental Example 3); type: in vitro ADME; settings: human, 0.2 μmol/L
# Method in brief: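 Test compound at 0.2 μmol/L was incubated at 37° C in human or BALB/c mouse plasma and sampled at 0, 30 and 60 min or at 0, 60 and 120 min. Compound and Alvocidib were quantified by LC-MS/MS peak area. Attrition is relative to 0 min; conversion is relative to 0.2 μmol/L Alvocidib reference.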
# [3] = pH5.0, 0 hr, 37° C., 25 umol/L in buffer solution
# [4] = pH5.0, 0.5 hr, 37° C., 25 umol/L in buffer solution
# [5] = pH5.0, 1 hr, 37° C., 25 umol/L in buffer solution
# [6] = pH5.0, 2 hr, 37° C., 25 umol/L in buffer solution
# [7] = pH5.0, 3 hr, 37° C., 25 umol/L in buffer solution
# [8] = pH5.5, 0 hr, 37° C., 25 umol/L in buffer solution
# [9] = pH5.5, 0.5 hr, 37° C., 25 umol/L in buffer solution
# [10] = pH5.5, 1 hr, 37° C., 25 umol/L in buffer solution
# [11] = pH5.5, 2 hr, 37° C., 25 umol/L in buffer solution
# [12] = pH5.5, 3 hr, 37° C., 25 umol/L in buffer solution
# [13] = pH6.0, 0 hr, 37° C., 25 umol/L in buffer solution
# [14] = pH6.0, 0.5 hr, 37° C., 25 umol/L in buffer solution
# [15] = pH6.0, 1 hr, 37° C., 25 umol/L in buffer solution
# [16] = pH6.0, 2 hr, 37° C., 25 umol/L in buffer solution
# [17] = pH6.0, 3 hr, 37° C., 25 umol/L in buffer solution
# [18] = pH6.5, 0 hr, 37° C., 25 umol/L in buffer solution
# [19] = pH6.5, 0.5 hr, 37° C., 25 umol/L in buffer solution
# [20] = pH6.5, 1 hr, 37° C., 25 umol/L in buffer solution
# [21] = pH6.5, 2 hr, 37° C., 25 umol/L in buffer solution
# [22] = pH6.5, 3 hr, 37° C., 25 umol/L in buffer solution
# [23] = pH7.0, 0 hr, 37° C., 25 umol/L in buffer solution
# [24] = pH7.0, 0.5 hr, 37° C., 25 umol/L in buffer solution
# [25] = pH7.0, 1 hr, 37° C., 25 umol/L in buffer solution
# [26] = pH7.0, 2 hr, 37° C., 25 umol/L in buffer solution
# [27] = pH7.0, 3 hr, 37° C., 25 umol/L in buffer solution
# [28] = pH7.4, 0 hr, 37° C., 25 umol/L in buffer solution
# [29] = pH7.4, 0.5 hr, 37° C., 25 umol/L in buffer solution
# [30] = pH7.4, 1 hr, 37° C., 25 umol/L in buffer solution
# [31] = pH7.4, 2 hr, 37° C., 25 umol/L in buffer solution
# [32] = pH7.4, 3 hr, 37° C., 25 umol/L in buffer solution
smiles,measurement,setting,value
"C[C@H](N)C(=O)O[C@@H]1CN(C)CC[C@@H]1c1c(O)cc(O)c2c(=O)cc(-c3ccccc3Cl)oc12 [Comparative Example 7, reference compound]",Production rate of Alvocidib,"[1]; pH5.0, 0 hr",2.8%
same,Residual rate,"[1]; pH5.0, 0 hr",96.8%
same,Stability in buffer solution at pH 5,[1],unstable
same,Production rate of Alvocidib,"[1]; pH5.0, 0.5 hr",5.7%
same,Residual rate,"[1]; pH5.0, 0.5 hr",93.9%
same,Production rate of Alvocidib,"[1]; pH5.0, 1 hr",9.7%
same,Residual rate,"[1]; pH5.0, 1 hr",90.1%
same,Production rate of Alvocidib,"[1]; pH5.0, 2 hr",15.7%
same,Residual rate,"[1]; pH5.0, 2 hr",83.8%
same,Production rate of Alvocidib,"[1]; pH5.0, 3 hr",21.9%
same,Residual rate,"[1]; pH5.0, 3 hr",77.6%
same,Production rate of Alvocidib,"[1]; pH5.5, 0 hr",2.7%
same,Residual rate,"[1]; pH5.5, 0 hr",97.0%
same,Production rate of Alvocidib,"[1]; pH5.5, 0.5 hr",7.9%
same,Residual rate,"[1]; pH5.5, 0.5 hr",91.9%
same,Production rate of Alvocidib,"[1]; pH5.5, 1 hr",14.3%
same,Residual rate,"[1]; pH5.5, 1 hr",85.4%
same,Production rate of Alvocidib,"[1]; pH5.5, 2 hr",23.8%
same,Residual rate,"[1]; pH5.5, 2 hr",75.9%
same,Production rate of Alvocidib,"[1]; pH5.5, 3 hr",33.1%
same,Residual rate,"[1]; pH5.5, 3 hr",66.6%
same,Production rate of Alvocidib,"[1]; pH6.0, 0 hr",3.4%
same,Residual rate,"[1]; pH6.0, 0 hr",96.4%
same,Production rate of Alvocidib,"[1]; pH6.0, 0.5 hr",26.1%
same,Residual rate,"[1]; pH6.0, 0.5 hr",73.9%
same,Production rate of Alvocidib,"[1]; pH6.0, 1 hr",48.3%
same,Residual rate,"[1]; pH6.0, 1 hr",51.7%
same,Production rate of Alvocidib,"[1]; pH6.0, 2 hr",70.9%
same,Residual rate,"[1]; pH6.0, 2 hr",28.9%
same,Production rate of Alvocidib,"[1]; pH6.0, 3 hr",84.8%
same,Residual rate,"[1]; pH6.0, 3 hr",15.2%
same,Production rate of Alvocidib,"[1]; pH6.5, 0 hr",3.9%
same,Residual rate,"[1]; pH6.5, 0 hr",96.0%
same,Production rate of Alvocidib,"[1]; pH6.5, 0.5 hr",34.7%
same,Residual rate,"[1]; pH6.5, 0.5 hr",65.3%
same,Production rate of Alvocidib,"[1]; pH6.5, 1 hr",61.2%
same,Residual rate,"[1]; pH6.5, 1 hr",38.8%
same,Production rate of Alvocidib,"[1]; pH6.5, 2 hr",83.2%
same,Residual rate,"[1]; pH6.5, 2 hr",16.8%
same,Production rate of Alvocidib,"[1]; pH6.5, 3 hr",93.4%
same,Residual rate,"[1]; pH6.5, 3 hr",6.6%
same,Production rate of Alvocidib,"[1]; pH7.0, 0 hr",4.1%
same,Residual rate,"[1]; pH7.0, 0 hr",95.9%
same,Production rate of Alvocidib,"[1]; pH7.0, 0.5 hr",37.3%
same,Residual rate,"[1]; pH7.0, 0.5 hr",62.6%
same,Production rate of Alvocidib,"[1]; pH7.0, 1 hr",64.3%
same,Residual rate,"[1]; pH7.0, 1 hr",35.5%
same,Production rate of Alvocidib,"[1]; pH7.0, 2 hr",85.8%
same,Residual rate,"[1]; pH7.0, 2 hr",14.2%
same,Production rate of Alvocidib,"[1]; pH7.0, 3 hr",94.9%
same,Residual rate,"[1]; pH7.0, 3 hr",5.1%
same,Production rate of Alvocidib,"[1]; pH7.4, 0 hr",4.2%
same,Residual rate,"[1]; pH7.4, 0 hr",95.3%
same,Production rate of Alvocidib,"[1]; pH7.4, 0.5 hr",36.7%
same,Residual rate,"[1]; pH7.4, 0.5 hr",63.0%
same,Production rate of Alvocidib,"[1]; pH7.4, 1 hr",63.5%
same,Residual rate,"[1]; pH7.4, 1 hr",36.3%
same,Production rate of Alvocidib,"[1]; pH7.4, 2 hr",84.7%
same,Residual rate,"[1]; pH7.4, 2 hr",15.3%
same,Production rate of Alvocidib,"[1]; pH7.4, 3 hr",94.4%
same,Residual rate,"[1]; pH7.4, 3 hr",5.6%
same,Production rate (%) of Alvocidib,[2]; 0 min,6%
same,Residual rate (%) of test compound,[2]; 0 min,100%
same,Production rate (%) of Alvocidib,[2]; 60 min,26%
same,Residual rate (%) of test compound,[2]; 60 min,77%
same,Production rate (%) of Alvocidib,[2]; 120 min,32%
same,Residual rate (%) of test compound,[2]; 120 min,65%
"CCN(CCC1CCCCN1)C(=O)Oc1cc(O)c2c(=O)cc(-c3ccccc3Cl)oc2c1[C@H]1CCN(C)C[C@H]1O (stereo partly drawn) [Example 16, 2-(2-chlorophenyl)-5-hydroxy-8-[(3S,4R)-3-hydroxy-1-methylpiperidin-4-yl]-4-oxo-4H-1-benzopyran-7-yl ethyl[2-(piperidin-2-yl)ethyl]carbamate]",Production rate of Alvocidib,[1]; [3],0.0%
same,Residual rate,[1]; [3],84.3%
same,Stability in buffer solution at pH 5,[1],stable
same,Production rate of Alvocidib,[1]; [4],0.0%
same,Residual rate,[1]; [4],84.9%
same,Production rate of Alvocidib,[1]; [5],0.0%
same,Residual rate,[1]; [5],86.4%
same,Production rate of Alvocidib,[1]; [6],0.0%
same,Residual rate,[1]; [6],86.1%
same,Production rate of Alvocidib,[1]; [7],0.0%
same,Residual rate,[1]; [7],86.1%
same,Production rate of Alvocidib,[1]; [8],0.0%
same,Residual rate,[1]; [8],84.9%
same,Production rate of Alvocidib,[1]; [9],0.0%
same,Residual rate,[1]; [9],85.8%
same,Production rate of Alvocidib,[1]; [10],0.0%
same,Residual rate,[1]; [10],86.3%
same,Production rate of Alvocidib,[1]; [11],0.0%
same,Residual rate,[1]; [11],85.7%
same,Production rate of Alvocidib,[1]; [12],0.0%
same,Residual rate,[1]; [12],86.6%
same,Production rate of Alvocidib,[1]; [13],0.0%
same,Residual rate,[1]; [13],85.3%
same,Production rate of Alvocidib,[1]; [14],0.0%
same,Residual rate,[1]; [14],84.3%
same,Production rate of Alvocidib,[1]; [15],12.8%
same,Residual rate,[1]; [15],71.7%
same,Production rate of Alvocidib,[1]; [16],21.6%
same,Residual rate,[1]; [16],63.0%
same,Production rate of Alvocidib,[1]; [17],29.3%
same,Residual rate,[1]; [17],55.6%
same,Production rate of Alvocidib,[1]; [18],0.0%
same,Residual rate,[1]; [18],86.0%
same,Production rate of Alvocidib,[1]; [19],16.4%
same,Residual rate,[1]; [19],67.6%
same,Production rate of Alvocidib,[1]; [20],25.3%
same,Residual rate,[1]; [20],61.4%
same,Production rate of Alvocidib,[1]; [21],47.1%
same,Residual rate,[1]; [21],37.4%
same,Production rate of Alvocidib,[1]; [22],51.5%
same,Residual rate,[1]; [22],34.9%
same,Production rate of Alvocidib,[1]; [23],0.0%
same,Residual rate,[1]; [23],86.2%
same,Production rate of Alvocidib,[1]; [24],30.5%
same,Residual rate,[1]; [24],54.8%
same,Production rate of Alvocidib,[1]; [25],50.2%
same,Residual rate,[1]; [25],35.7%
same,Production rate of Alvocidib,[1]; [26],68.6%
same,Residual rate,[1]; [26],16.9%
same,Production rate of Alvocidib,[1]; [27],78.2%
same,Residual rate,[1]; [27],7.7%
same,Production rate of Alvocidib,[1]; [28],0.9%
same,Residual rate,[1]; [28],85.3%
same,Conversion to Alvocidib at pH 7.4,"[1]; pH 7.4, 37° C., up to 3 hours",rapidly converted to Alvocidib
same,Production rate of Alvocidib,[1]; [29],59.0%
same,Residual rate,[1]; [29],23.2%
same,Production rate of Alvocidib,[1]; [30],77.8%
same,Residual rate,[1]; [30],5.9%
same,Production rate of Alvocidib,[1]; [31],82.1%
same,Residual rate,[1]; [31],2.2%
same,Production rate of Alvocidib,[1]; [32],85.8%
same,Residual rate,[1]; [32],0.0%
